{"source": "patent US7741283B2", "about": "“Compositions and methods for inhibiting cell proliferation” (St. Louis University, priority 2003, dated 2010)", "origin": "cited, not measured here", "target": "TβR-V/IGFBP-3 receptor", "conditions": "Mv1Lu cells; read-out: Kd of IGFBP-3 binding to its receptor; cited from earlier work", "data": [{"substance": "IGFBP-3: human insulin-like growth factor binding protein-3 expressed in E. Coli", "values": [{"measurement": "Kd", "result": 6, "unit": "nM"}]}]}
